Results: patent publication US9487749B2 (priority 2009, dated 2016)
Several values for one entry are separate records, joined by “and”; a condition that tells them apart may be missing. Equal entries are not always repeated.

Columns and labels:
[1] = test system: Lactobacillus acidophilus ATCC #4356; test: Lactobacillus acidophilus growth and recovery in a simulated intestinal tract environment; format: cell-based
[2] = test system: Rhinovirus type 14 (ATCC #VR-284); format: cell-based
Chlorella minutissima = test: Algal growth with MSM by percent transmittance; format: cell-based
Description: Two species of Chlorella were examined for growth—Chlorella sorokiniana a freshwater species and Chlorella minutissima a marine species. […] Growth was measured on day 0, 1, 2, 3, 4, 5, 6, 7, 8, 9 and 10. […] The following media were purchased from UTEX Culture Collection of Algae: Enriched Salt Water Medium and Volvox Dextrose Medium.
The algae were grown for 48 hours in the appropriate medium. The initial suspension was enumerated for each alga and is referred to as the starting inoculums. Chlorella sorokiniana was at 381 million cells per milliliter and Chlorella minutissima was at 19 million cells per milliliter. One milliliter of the algal solution was placed into 9 mLs of medium and mixed by vortexing. […] The tube of algae and MSM were incubated at room temperature with exposure to sunlight. […] Each dilution of MSM for each organism was set up in and analyzed in triplicate for each time interval measured. The samples were measured by percent transmittance on a UV/VIS spectrophotometer at wavelength 750 nm. The medium stock was tested for percent transmittance background levels at every time interval were measured. The lower percent transmittance indicated a higher growth factor.

CS(C)(=O)=O [MSM, Methylsulfonylmethane]
log increase in the next 8 hours after hour 48 ([1]; 5.0% MSM): 3.16 logs | time to substantial growth rate increase after hour 24 ([1]; 5.0% MSM): 6 h | log growth of Lactobacillus acidophilus ([1]; 5.0% MSM, hour 36): 8.65 logs | Log Growth of Lactobacillus acidophilus ([1]; 5.0% MSM, 20 min Gastric): <1.00 log | Log Growth of Lactobacillus acidophilus ([1]; 5.0% MSM, Hour 3, simulated intestinal fluid): 1.62 log | Log Growth of Lactobacillus acidophilus ([1]; 5.0% MSM, Hour 8, simulated intestinal fluid): 2.33 log | Log Growth of Lactobacillus acidophilus ([1]; 5.0% MSM, Hour 24, simulated intestinal fluid): 6.39 log | Log Growth of Lactobacillus acidophilus ([1]; 5.0% MSM, Hour 30, simulated intestinal fluid): 6.63 log | Log Growth of Lactobacillus acidophilus ([1]; 5.0% MSM, Hour 36, simulated intestinal fluid): 8.65 log | Log Growth of Lactobacillus acidophilus ([1]; 5.0% MSM, Hour 48, simulated intestinal fluid): 10.17 log | Log Growth of Lactobacillus acidophilus ([1]; 5.0% MSM, Hour 54, simulated intestinal fluid): 13.33 log | Log Growth of Lactobacillus acidophilus ([1]; 5.0% MSM, Hour 60, simulated intestinal fluid): 12.76 log | Log Growth of Lactobacillus acidophilus ([1]; 5.0% MSM, Hour 72, simulated intestinal fluid): 12.78 log | Log Growth of Lactobacillus acidophilus ([1]; 5.0% MSM, Starting Inoculum (milk)): 7.02 log | log increase in the next 8 hours after hour 48 ([1]; […] MSM): 2.07 logs | Log Growth of Lactobacillus acidophilus ([1]; […] MSM, 20 min Gastric): <1.00 log | Log Growth of Lactobacillus acidophilus ([1]; […] MSM, Starting Inoculum (milk)): 6.86 log | Average Log Stimulation [2]: 0.053 log10 and 0.11 log10 | Average Percent Stimulation [2]: 11.49% and 22.38% | Average TCID50 [2]: 4.42 log10 and 5.00 log10 and 5.58 log10 and 5.42 log10 and 5.67 log10 and 5.25 log10 | Log Stimulation [2]: 0.08 log10 and 0.00 log10 and 0.17 log10 | TCID50 [2]: 4.25 log10 and 4.50 log10 and 4.75 log10 and 5.00 log10 and 5.25 log10 and 5.50 log10 and 6.00 log10 and 5.75 log10 | percent transmittance (Chlorella minutissima; MSM Percentage 0.5, day 0, 750 nm): 93.5% | percent transmittance (Chlorella minutissima; MSM Percentage 0.5, day 1, 750 nm): 70.1% | percent transmittance (Chlorella minutissima; MSM Percentage 0.5, day 2, 750 nm): 45.4% | percent transmittance (Chlorella minutissima; MSM Percentage 0.5, day 3, 750 nm): 32.1% | percent transmittance (Chlorella minutissima; MSM Percentage 0.5, day 4, 750 nm): 27.6% | percent transmittance (Chlorella minutissima; MSM Percentage 0.5, day 5, 750 nm): 26.6% | percent transmittance (Chlorella minutissima; MSM Percentage 0.5, day 6, 750 nm): 25.1% | percent transmittance (Chlorella minutissima; MSM Percentage 0.5, day 7, 750 nm): 23.6% | percent transmittance (Chlorella minutissima; MSM Percentage 0.5, day 8, 750 nm): 22.8% | percent transmittance (Chlorella minutissima; MSM Percentage 0.5, day 9, 750 nm): 20.4% | percent transmittance (Chlorella minutissima; MSM Percentage 0.5, day 10, 750 nm): 18.9% | percent transmittance (Chlorella minutissima; MSM Percentage 1.0, day 0, 750 nm): 91.1% | percent transmittance (Chlorella minutissima; MSM Percentage 1.0, day 1, 750 nm): 80.5% | percent transmittance (Chlorella minutissima; MSM Percentage 1.0, day 2, 750 nm): 40.0% | percent transmittance (Chlorella minutissima; MSM Percentage 1.0, day 3, 750 nm): 31.0% | percent transmittance (Chlorella minutissima; MSM Percentage 1.0, day 4, 750 nm): 27.9% | percent transmittance (Chlorella minutissima; MSM Percentage 1.0, day 5, 750 nm): 26.5% | percent transmittance (Chlorella minutissima; MSM Percentage 1.0, day 6, 750 nm): 25.4% | percent transmittance (Chlorella minutissima; MSM Percentage 1.0, day 7, 750 nm): 24.4% | percent transmittance (Chlorella minutissima; MSM Percentage 1.0, day 8, 750 nm): 23.7% | percent transmittance (Chlorella minutissima; MSM Percentage 1.0, day 9, 750 nm): 21.0% | percent transmittance (Chlorella minutissima; MSM Percentage 1.0, day 10, 750 nm): 19.4% | percent transmittance (Chlorella minutissima; MSM Percentage 2.5, day 0, 750 nm): 82.8% | percent transmittance (Chlorella minutissima; MSM Percentage 2.5, day 1, 750 nm): 75.1% | percent transmittance (Chlorella minutissima; MSM Percentage 2.5, day 2, 750 nm): 59.5% | percent transmittance (Chlorella minutissima; MSM Percentage 2.5, day 3, 750 nm): 45.4% | percent transmittance (Chlorella minutissima; MSM Percentage 2.5, day 4, 750 nm): 33.6% | percent transmittance (Chlorella minutissima; MSM Percentage 2.5, day 5, 750 nm): 32.4% | percent transmittance (Chlorella minutissima; MSM Percentage 2.5, day 6, 750 nm): 30.0% | percent transmittance (Chlorella minutissima; MSM Percentage 2.5, day 7, 750 nm): 28.6% | percent transmittance (Chlorella minutissima; MSM Percentage 2.5, day 8, 750 nm): 27.7% | percent transmittance (Chlorella minutissima; MSM Percentage 2.5, day 9, 750 nm): 23.3% | percent transmittance (Chlorella minutissima; MSM Percentage 2.5, day 10, 750 nm): 21.1% | percent transmittance (Chlorella minutissima; MSM Percentage 5.0, day 0, 750 nm): 68.9% | percent transmittance (Chlorella minutissima; MSM Percentage 5.0, day 1, 750 nm): 87.4% | percent transmittance (Chlorella minutissima; MSM Percentage 5.0, day 2, 750 nm): 76.5% | percent transmittance (Chlorella minutissima; MSM Percentage 5.0, day 3, 750 nm): 62.0% | percent transmittance (Chlorella minutissima; MSM Percentage 5.0, day 4, 750 nm): 52.9% | percent transmittance (Chlorella minutissima; MSM Percentage 5.0, day 5, 750 nm): 52.2% | percent transmittance (Chlorella minutissima; MSM Percentage 5.0, day 6, 750 nm): 50.7% | percent transmittance (Chlorella minutissima; MSM Percentage 5.0, day 7, 750 nm): 51.0% | percent transmittance (Chlorella minutissima; MSM Percentage 5.0, day 8, 750 nm): 51.9% | percent transmittance (Chlorella minutissima; MSM Percentage 5.0, day 9, 750 nm): 47.1% | percent transmittance (Chlorella minutissima; MSM Percentage 5.0, day 10, 750 nm): 44.1% | percent transmittance (Chlorella minutissima; MSM Percentage 10.0, day 0, 750 nm): 49.6% | percent transmittance (Chlorella minutissima; MSM Percentage 10.0, day 1, 750 nm): 49.2% | percent transmittance (Chlorella minutissima; MSM Percentage 10.0, day 2, 750 nm): 50.8% | percent transmittance (Chlorella minutissima; MSM Percentage 10.0, day 3, 750 nm): 51.9% | percent transmittance (Chlorella minutissima; MSM Percentage 10.0, day 4, 750 nm): 52.0% | percent transmittance (Chlorella minutissima; MSM Percentage 10.0, day 5, 750 nm): 51.9% | percent transmittance (Chlorella minutissima; MSM Percentage 10.0, day 6, 750 nm): 54.9% | percent transmittance (Chlorella minutissima; MSM Percentage 10.0, day 7, 750 nm): 56.1% | percent transmittance (Chlorella minutissima; MSM Percentage 10.0, day 8, 750 nm): 58.6% | percent transmittance (Chlorella minutissima; MSM Percentage 10.0, day 9, 750 nm): 41.4% | percent transmittance (Chlorella minutissima; MSM Percentage 10.0, day 10, 750 nm): 36.7% | percent transmittance (Chlorella minutissima; MSM Percentage 20.0, day 0, 750 nm): 30.0% | percent transmittance (Chlorella minutissima; MSM Percentage 20.0, day 1, 750 nm): 33.8% | percent transmittance (Chlorella minutissima; MSM Percentage 20.0, day 2, 750 nm): 51.1% | percent transmittance (Chlorella minutissima; MSM Percentage 20.0, day 3, 750 nm): 54.8% | percent transmittance (Chlorella minutissima; MSM Percentage 20.0, day 4, 750 nm): 57.3% | percent transmittance (Chlorella minutissima; MSM Percentage 20.0, day 5, 750 nm): 57.5% | percent transmittance (Chlorella minutissima; MSM Percentage 20.0, day 6, 750 nm): 57.4% | percent transmittance (Chlorella minutissima; MSM Percentage 20.0, day 7, 750 nm): 57.1% | percent transmittance (Chlorella minutissima; MSM Percentage 20.0, day 8, 750 nm): 55.8% | percent transmittance (Chlorella minutissima; MSM Percentage 20.0, day 9, 750 nm): 45.1% | percent transmittance (Chlorella minutissima; MSM Percentage 20.0, day 10, 750 nm): 30.2% | reduction of viability (Streptococcus Pneumonia): approximately 5%
